System: rat
Test: Vogel conflict test (punished drinking)
Assay type: in vivo
Conditions: for PUNISHED DRINKING (number of shocks) mean ± s.e.m.: 3 minute period; for PUNISHED DRINKING % change from control: vs vehicle; for efficacy compared between racemate and enantiomers: 50-200 mg/kg p.o.; for efficacy compared with the positive control clobazam: 50-200 mg/kg p.o. vs clobazam 64 mg/kg
Procedure: a) Description of method: The method, which detects anxiolytic and related other psychiatric activity, follows that described by Vogel et al, Psychopharmacologia 1971; 21:1-7 Anxiolytics and antidepressants (e.g., Fontana et al., Psychopharmacology 1989; 98(2):157-62) of various classes increase punished drinking.
Rats are deprived of water for 48 hours and are then placed individually into a transparent Plexiglas enclosure (15×32×34 cm) with a floor consisting of stainless steel bars (0.4 cm) spaced 1 cm apart The back wall of the enclosure is made of opaque Plexiglass thereby concealing the observer from the experimental animal. In the centre of the opposite wall, 5 cm above the floor, a metal water spout protrudes into the cage and is connected to one pole of a shock generator (Apelex: Type 011346). The other pole of the shock generator is connected to the metal grid floor. The rat is left to explore until it found the water spout. Then, every time it drinks, it receives a slight electric shock (1.7 mA, 1 sec.) 2 seconds after it starts lapping. The number of shocks received (punished drinkings) is counted during a 3 minute period. 15 rats are studied per group. The test is performed blind. Compounds are evaluated at 50, 100 and 200 mg/kg, administered p.o. 60 minutes before the test, and compared with a vehicle control group. Clobazam (64 mg/kg), administered under the same experimental conditions, is used as reference substance. All substances are evaluated within the same experiment and compared with the same vehicle and reference substance controls. Data are analyzed by comparing treated groups with vehicle control using unpaired Student's t tests.

| Structure (SMILES) | PUNISHED DRINKING (number of shocks) mean ± s.e.m. (50 mg/kg p.o. -60 min) | PUNISHED DRINKING % change from control (50 mg/kg p.o. -60 min) | PUNISHED DRINKING (number of shocks) mean ± s.e.m. (100 mg/kg p.o. -60 min) | PUNISHED DRINKING % change from control (100 mg/kg p.o. -60 min) | PUNISHED DRINKING (number of shocks) mean ± s.e.m. (200 mg/kg p.o. -60 min) | PUNISHED DRINKING % change from control (200 mg/kg p.o. -60 min) | efficacy compared between racemate and enantiomers | PUNISHED DRINKING (number of shocks) mean ± s.e.m. (64 mg/kg p.o. -60 min) | PUNISHED DRINKING % change from control (64 mg/kg p.o. -60 min) | efficacy compared with the positive control clobazam |
| --- | --- | --- | --- | --- | --- | --- | --- | --- | --- | --- |
| NC(=O)N1c2ccccc2CC(O)c2ccccc21 (racemic) [M3, 10-hydroxy-10,11-dihydro-carbamazepine] | 5.9 ± 0.5 number of shocks | +34% | 8.4 ± 1.0 number of shocks | +91% | 10.4 ± 1.5 number of shocks | +136% | between that of the R- and S-enantiomers | – | – | – |
| CN1C(=O)CC(=O)N(c2ccccc2)c2cc(Cl)ccc21 [CLOBAZAM, Clobazam, reference compound] | – | – | – | – | – | – | – | 8.2 ± 1.1 number of shocks | +86% | – |
| NC(=O)N1c2ccccc2C[C@@H](O)c2ccccc21 [M4, R(−)-10,11-dihydro-10-hydroxy-5H-dibenzo[b,f]azepine-5-carboxamide] | 5.0 ± 0.4 NS number of shocks | +14% | 5.5 ± 0.5 NS number of shocks | +25% | 7.4 ± 1.3 number of shocks | +68% | less efficacious than the S-enantiomer at the lowest dose used | – | – | less than that of the positive control |
| NC(=O)N1c2ccccc2C[C@H](O)c2ccccc21 [M5, S(+)-10,11-dihydro-10-hydroxy-5H-dibenzo[b,f]azepine-5-carboxamide] | 8.4 ± 1.3 number of shocks | +91% | 9.5 ± 1.0 number of shocks | +116% | 10.5 ± 1.3 number of shocks | +139% | – | – | – | surpasses that of clobazam at all doses tested |

Source: US7638510B2, “Use of s-10-hydroxy-10,11-dihydro-carbamazepine for the treatment of anxiety and bipolar disorders” (Novartis AG, priority 2003, dated 2009)
